In patent US20140056964A1, “GRANZYME B INHIBITOR COMPOSITIONS, METHODS AND USES FOR PROMOTING WOUND HEALING” (THE UNIVERSITY OF BRITISH COLUMBIA, priority 2010, published 2014):
“Also recorded” adds a separate entry of the source. One block for each molecule: values may come before it.

Assays:
Granzyme B [1] = molecular target: T1, Granzyme B (Homo sapiens, UniProt P10144); assay: continuous colorimetric Granzyme B inhibition assay with substrate Ac-IEPD-pNA; type: biochemical; settings: substrate Ac-IEPD-pNA 20 μM, 37° C., pNA release at 405 nm
Procedure: Small molecule libraries (ZINC—Irwin J J and Shoichet B K, 2005. J. Chem Inf Model 4591:177-182; NCI—Voigt, J. H. et al. J. Chem. Inf Comput. Sci. 2001, 41, 702-712) were screened in silico for candidate Granzyme B inhibitory compounds. Several candidate small molecule inhibitors were identified and subjected to an in vitro Granzyme B inhibition assay. More specifically, a continuous colormetric assay for Granzyme B activity was carried out with the substrate Ac-IEPD-pNA. Briefly, 8 ug/ml Granzyme B, 20 μM substrate, and increasing concentrations of the inhibitor of interest was incubated in a final reaction volume of 50 ul. The reaction buffer consisted of 50 mM HEPES pH 7.5, 10% sucrose, 0.1% CHAPS and 5 mM DTT and reactions were carried out at 37° C. pNA release and Granzyme B inhibition was monitored at 405 nm on a Tecan Safire microplate reader.
As detailed herein and as detailed in Tables A and B herein, candidate inhibitors, and IC50 concentration obtained from the inhibition assay are set out below.

[2] = molecular target: T2, purified human Granzyme B (Homo sapiens, UniProt P10144); assay: proteoglycan cleavage assay (recombinant decorin, biglycan, betaglycan incubated with Granzyme B +/- inhibitor, SDS-PAGE); type: biochemical; settings: for Granzyme B cleavage of decorin: 24 h, 30 ul, Coomassie Blue stain
T2 construct: purchased Axxora, San Diego, Calif
Procedure: For ECM cleavage assays, Granzyme B and/or the inhibitor 3,4-dichloroisocoumarin (DCI), were incubated for 4 and 24 hours at room temperature, with decorin, biglycan or soluble betaglycan and visualized by Ponceau staining. Cleavage fragments were subjected to Edman degradation for cleavage site identification.
Proteoglycan cleavage assays. The recombinant human PGs, decorin (0.5 μg, Abnova, Walnut, Calif.), biglycan and betaglycan (1.5-5 ug, R&D Systems, Minneapolis, Minn.) were incubated at room temperature for 24 h with 25-500 nM purified human Granzyme B (Axxora, San Diego, Calif.), in 50 mM Tris buffer, pH 7.4. For inhibitor studies, Granzyme B was incubated in the presence or absence of 200 μM of the serine protease inhibitor 3,4-dichloroisocoumarin (DCI; Santa Cruz Biotechnology Inc, Santa Cruz, Calif.) or inhibitor solvent control, dimethyl sulfoxide (DMSO; Sigma-Aldrich, St Louis, Mo.) for 4 h or 24 h. After incubation, proteins were denatured, separated on a 10% SDS-polyacrylamide gel and transferred to a nitrocellulose membrane. Ponceau stain (Fisher Scientific, Waltham, Mass.) was used to detect cleavage fragments.
Samples were run on a 10% gel, imaged with Ponceau stain and scanned.
In this Example, incubations were performed at RT for 24 h in a total reaction volume of 30 ul. Samples were run on a 10% gel and imaged by Coomassic Blue stain. With reference to FIG. 17, the asterisk=full length protein.
Samples were run on a 10% gel, imaged with Ponceau stain and scanned. […] DMSO vehicle control was not included due to redundancy. Asterisk=full length protein; Arrow=cleavage fragments. Obstruction in Granzyme B/Betaglycan lane affecting first 2 cleavage fragments.

Granzyme B [3] = molecular target: T1, Granzyme B; assay: TGF-β release assay from proteoglycan/TGF-β complexes (Western blot of supernatants); type: biochemical; settings: for release of TGF-β from betaglycan/TGF-β complexes by Granzyme B: 20 ug/ml betaglycan, 10 ng TGF-β, 24 h at RT
Procedure: Cytokine release was assessed in supernatants using Western blotting. TGF-β release assays were carried out using a method similar to that previously described for the MMPs (Imai et al. 1997). Briefly, decorin, biglycan and betaglycan (15 μg/mL) were coated onto 48 well tissue culture plastic plates and allowed to incubate overnight at 4° C. in PBS, pH 7.4. After blocking with 1% bovine serum albumin, 20 ng of active TGF-β1 per well (Peprotech Inc, Rocky Hill, N.J.) was added in DPBS containing calcium and magnesium (#14040, Invitrogen, Carlsbad, Calif.) for 5 h at RT. Granzyme B, with or without DCI, was then added to the wells. After 24 h, supernatants were removed, denatured, and run on a 15% SDS-PAGE gel. Once transferred to a nitrocellulose membrane and blocked with 10% skim milk, the membrane was probed using a rat anti-human TGF-β1 antibody (1:200, BD Biosciences, Franklin Lakes, N.J.) and IRDye® 800 conjugated affinity purified anti-Rat IgG (1:3000, Rockland Inc, Gilbertsville, Pa.). Bands were imaged using the Odyssey Infrared Imaging System (LI-COR Biotechnology, Lincoln, Nebr.). In this Example, 20 ug/ml betaglycan was coated onto 48 well plates and incubated with 10 ng of TGF-β. Excess TGF-β was washed off the plate and betaglycan/TGF-β complexes were incubated with Granzyme B+/− inhibitors for 24 h at RT. Supernatants (containing released TGF-β) were collected and Western blotted for TGF-β. There is little non-specific dissociation of TGF-β into supernatants in the absence of Granzyme B (2; see FIG. 16). TGF-β is released by Granzyme B after 24 h of incubation (4; see FIG. 16).

[4] = system: human coronary artery smooth muscle cells (HCASMC); assay: Human coronary artery smooth muscle cell TGF-β bioavailability assay (SMAD-3 / Erk phosphorylation); type: cell-based; settings: supernatants of betaglycan release assay (Granzyme B +/- DCI) on cells for 16 h
Procedure: To determine if the TGF-β released by Granzyme B was active, supernatants from the above release assay were incubated on human coronary artery smooth muscle cells (HCASMC) and SMAD/Erk activation was examined by Western blotting. For bioavailability assays, HCASMCs (Clonetics/Lonza, Walkersville, Md.) at passage 3-5 were seeded in 6 well plates in smooth muscle cell growth media (SmGM, Clonetics) +5% fetal bovine serum (FBS, Invitrogen) and grown to confluence. At this time, cells were quiesced by serum removal for 24 h, after which time 150 μl of release assay supernatants (as described above) or a 10 ng TGF-β positive control were added to the cells for 16 h. Cell lysates were assessed by SDS-PAGE/Western blotting for phosphorylated-Erk 1/2 (p-Erk1/2; 1:1000, Cell Signaling Technology, Danvers, Mass.), total Erk 1/2 (t-Erk1/2; 1:1000, Cell Signaling Technology), phosphorylated-SMAD3 (p-SMAD3; 1:2000, Epitomics, Burlingame, Calif.), total SMAD3 (t-SMAD3; 1:500, BD Biosciences) and the loading controls β-actin (1:5000, Sigma-Aldrich) or β-tubulin (1:3000, Millipore, Billerica, Mass.). Secondary IRDye® 800 conjugated antibodies (1:3000, Rockland Inc) were utilized and imaged with the Odyssey Infrared Imaging System (LI-COR Biotechnology). […]

Granzyme B [5] = molecular target: T1, Granzyme B; assay: fibronectin cleavage by Granzyme B +/- inhibitor; type: biochemical; settings: inhibitor at 3.12 nM
Procedure: As shown in FIGS. 21A and B herein, incubations as described herein were performed with fibronectin (FN) and Granzyme B, both in the absence of inhibitor Willoughby 20 and in the presence of inhibitor Willoughby 20. Compound Willoughby 20 inhibits Granzyme B cleavage of FN at 3.12 nM.

Granzyme B [6] = molecular target: T1, Granzyme B; assay: cleavage of endogenous HCASMC-derived ECM (fibronectin, decorin Western blot) by 100 nM Granzyme B +/- inhibitor; type: biochemical; settings: inhibitor at 150 μM
Procedure: More specifically, as it relates to FIG. 18, to synthesize endogenous ECM, human coronary artery smooth muscle cells were seeded in 6 well plates and incubated at confluency for 7 days in serum starvation media (SMGM+0.2% FBS). Cells were removed from the plates by incubation with 0.25M Ammonium Hydroxide for 20 min. This treatment removes cells while leaving the surrounding extracellular matrix intact. Subsequently, 100 nM Granzyme B and the inhibitor of interest were incubated on the endogenous ECM for 24 h. Supernatants from the plates (containing cleavage fragments) were run on an SDS-PAGE gel and Western blotted for fibronectin or decorin. DMSO solvent control was not included due to redundancy. Asterisk=full length protein; Arrow=cleavage fragments, star denotes full length. […] Cells were removed from the plates by incubation with 0.25M Ammonium Hydroxide for 20 min. This treatment removes cells while leaving the surrounding extracellular matrix intact. Subsequently, 100 nM Granzyme B and the inhibitor of interest were incubated on the endogenous ECM for 24 h. Supernatants from the plates (containing cleavage fragments) were run on to an SDS-PAGE gel and Western blotted for fibronectin or decorin. DMSO solvent control was not included due to redundancy. Asterisk=full length protein; Arrow=cleavage fragments, star denotes full length.

T2 sequence (P10144 21-247): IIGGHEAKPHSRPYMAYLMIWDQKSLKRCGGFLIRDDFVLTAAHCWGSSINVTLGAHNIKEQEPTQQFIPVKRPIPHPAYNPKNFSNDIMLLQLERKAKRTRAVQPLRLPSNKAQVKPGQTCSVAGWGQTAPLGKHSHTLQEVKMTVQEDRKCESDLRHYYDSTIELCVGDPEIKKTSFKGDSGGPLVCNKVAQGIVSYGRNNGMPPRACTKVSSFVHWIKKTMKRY
T1 sequence (P10144 21-247): as above

SMILES: Cc1ccc(NC(=O)/C(O)=C(/C(=O)c2ccc3ccccc3c2)[C@H]2OC(=O)c3ccccc32)c(C)c1 (stereo in doubt) [ZINC05316154]
- IC50 (Granzyme B [1]): ~195 µM

SMILES: O=C(Nc1ccc(Cl)cc1Cl)/C(O)=C\C(=O)[C@@H]1CCOC1=O (stereo in doubt) [ZINC05605947]
- IC50 (Granzyme B [1]): ~320 µM

SMILES: O=c1oc(Cl)c(Cl)c2ccccc12 [DCI, 3,4-dichloroisocoumarin]
- Granzyme B-mediated cleavage of decorin, biglycan and betaglycan ([2]; 200 μM DCI, 4 h and 24 h, room temperature, Ponceau stain): effectively inhibited
- release of TGF-β from betaglycan/TGF-β complexes by Granzyme B (Granzyme B [3]): partially inhibited
- release of TGF-β from decorin, biglycan and betaglycan by Granzyme B (Granzyme B [3]; 24 h incubation, Western blot of supernatants): not released; also recorded: inhibited; also recorded: no release evident
- TGF-β signaling (SMAD-3 and Erk 1/2 phosphorylation) in HCASMC [4]: limited TGF-β signaling

SMILES: CC[C@H](C)[C@H](NC(=O)Cc1csc2ccccc12)C(=O)N[C@H]1CCc2cccc3c2N(C1=O)[C@H](C(=O)NCc1c[nH]nn1)C3 [Willoughby 20, Azepino[3,2,1-hi]indole-2-carboxamide, 5-[[(2S,3S)-2-[(2-benzo[b]thien-3-ylacetyl)amino]-3-methyl-1-oxopentyl]amino]-1,2,4,5,6,7-hexahydro-4-oxo-N-(1H-1,2,3-triazol-5-ylmethyl)-, (2S,5S)-]
- IC50 (Granzyme B [1]): ~3.1 µM
- Granzyme B cleavage of decorin ([2]; RT): Inhibits
- Granzyme B cleavage of decorin ([2]; RT, listed as compound 20): prevented
- Granzyme B cleavage of betaglycan ([2]; room temperature, 24 hours, 30 μl, Ponceau stain): inhibits
- Granzyme B cleavage of fibronectin (FN) (Granzyme B [5]): inhibits
- release of TGF-β from betaglycan/TGF-β complexes by Granzyme B (Granzyme B [3]): inhibited

SMILES: O=C1CCC(=O)/C(=C(/O)CCC(=O)Nc2cccc(Cl)c2)C1 [ZINC05315460]
- IC50 (Granzyme B [1]): ~100 µM

SMILES: CC(=O)CCC(=O)CC(=O)CCC(=O)Nc1cc(Cl)ccc1Cl [ZINC05316859]
- IC50 (Granzyme B [1]): ~250 µM

SMILES: COC(=O)CC/C(O)=C(/C(=O)CCC(=O)Nc1ccc(Cl)cc1Cl)C(=O)OC [ZINC05317216]
- IC50 (Granzyme B [1]): ~50 µM

SMILES: CCOc1ccccc1NC(=O)/C(O)=C(/C(=O)c1ccc2ccccc2c1)[C@@H]1OC(=O)c2ccccc21 [ZINC05398428]
- IC50 (Granzyme B [1]): ~255 µM

Now from value to molecule:

- IC50 (Granzyme B [1]): ~270 µM
SMILES: Cc1ccc(NC(=O)/C(O)=C(/C(=O)c2ccc3ccccc3c2)[C@@H]2OC(=O)c3ccccc32)cc1C [ZINC05723503]

- IC50 (Granzyme B [1]): ~250 µM
SMILES: CC(=O)c1ccccc1NC(=O)/C(O)=C(/C(=O)c1ccccc1-c1ccccc1)[C@@H]1OC(=O)c2ccccc21 [ZINC05723646]

- IC50 (Granzyme B [1]): ~25 µM
- Granzyme B cleavage of betaglycan ([2]; inhibitor at 100 μM, RT, 4 h): does not inhibit
- decorin cleavage by Granzyme B (Granzyme B [6]): effective
SMILES: CC(=O)c1ccc(NC(=O)/C(O)=C(\C(=O)/C=C\c2ccccc2)[C@@H]2OC(=O)c3ccccc32)cc1 [ZINC05723764]

- IC50 (Granzyme B [1]): ~40 µM
- Granzyme B cleavage of betaglycan ([2]; inhibitor at 50 μM, RT, 4 h): partially inhibits
- Granzyme B cleavage of betaglycan ([2]; inhibitor at 100 μM, RT, 4 h): completely
SMILES: Cc1ccc(NC(=O)/C(O)=C(/C(=O)/C=C/c2ccccc2)C2OC(=O)c3ccccc32)c(C)c1 (stereo not drawn) [ZINC05723787]
